Assay results as given in paper PMC2872082 (Journal of the American Chemical Society, 2010).

Target: T1, MshA (CgMshA) (Corynebacterium glutamicum, UniProt Q8NTA6)
T1 sequence (Q8NTA6 1-418): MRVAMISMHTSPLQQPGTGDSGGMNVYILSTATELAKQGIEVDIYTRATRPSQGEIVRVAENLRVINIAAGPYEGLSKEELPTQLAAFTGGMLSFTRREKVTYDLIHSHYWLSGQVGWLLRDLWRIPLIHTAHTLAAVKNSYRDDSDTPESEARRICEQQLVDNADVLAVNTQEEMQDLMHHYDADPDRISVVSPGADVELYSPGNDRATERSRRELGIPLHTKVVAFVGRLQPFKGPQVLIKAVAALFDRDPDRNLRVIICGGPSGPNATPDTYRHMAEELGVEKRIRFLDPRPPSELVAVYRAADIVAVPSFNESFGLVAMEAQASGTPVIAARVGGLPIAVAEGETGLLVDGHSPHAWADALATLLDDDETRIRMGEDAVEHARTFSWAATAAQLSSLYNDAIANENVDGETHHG
Assay: steady-state enzyme inhibition kinetics and slow-binding progress curves
Assay type: biochemical

Structure (SMILES): CC(=O)N[C@H]1[C@@H](OP(=O)(O)OP(=O)(O)OC[C@H]2O[C@@H](n3ccc(=O)[nH]c3=O)[C@H](O)[C@@H]2O)O[C@](F)(CO)[C@@H](O)[C@@H]1O [UDP-(5F)-GlcNAc]
- Ki: 1400 ± 200 nM
